From US9890166B2, “Imidazopyrrolidine derivatives and their use in the treatment of disease” (NOVARTIS AG, priority 2013, dated 2018)

Columns and labels:
MV-4-11 cells = assay: Cell growth inhibition assay (CellTiter-Glo), MV-4-11; details: for GI50: Homo sapiens, MV4-11, read-out: MV-4-11 GI50; for MV-4-11 TGI: MV-4-11 cells, total growth inhibition, CellTiter-Glo;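 as to all read-outs here: cellular ATP luminescence after 4 days, 3-fold dilution series from 10 µM top dose, vehicle (0.1% DMSO) set to 100%, cell-free medium set to −100%, day 0 corrected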
BRD4 (His-Brd4(44-477)) = BRD4 (His-Brd4(44-477)) (Homo sapiens (Human), UniProt O60885); assay: TR-FRET in-vitro binding assay for BRD4; details: single determination or n ≧ 2 independent determinations, read-out: Biochemical IC50 BRD4
In short: (§1)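 Compounds were serially diluted over eight concentrations and added to wells. TR-FRET signal was then measured.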

BRD2 (His-Brd2(60-472)) = BRD2 (His-Brd2(60-472)) (Homo sapiens (Human), UniProt P25440); assay: TR-FRET in-vitro binding assay for BRD2; details: single determination or n ≧ 2 independent determinations, read-out: Biochemical IC50 BRD2
Chain of BRD2 (His-Brd2(60-472)) (P25440 60-472): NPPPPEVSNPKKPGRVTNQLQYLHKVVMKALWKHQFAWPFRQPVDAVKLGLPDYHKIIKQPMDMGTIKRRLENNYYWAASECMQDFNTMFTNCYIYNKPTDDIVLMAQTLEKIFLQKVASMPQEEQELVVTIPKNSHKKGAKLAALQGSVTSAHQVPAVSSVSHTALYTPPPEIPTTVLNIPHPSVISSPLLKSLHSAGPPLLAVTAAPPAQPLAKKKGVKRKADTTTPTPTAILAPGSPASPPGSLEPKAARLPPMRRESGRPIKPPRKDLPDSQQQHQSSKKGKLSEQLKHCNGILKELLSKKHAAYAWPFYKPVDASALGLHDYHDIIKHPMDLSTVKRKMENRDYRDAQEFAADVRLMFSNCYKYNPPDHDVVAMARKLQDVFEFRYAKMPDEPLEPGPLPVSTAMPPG
Protocol: TR-FRET In-Vitro Binding Assays for BRD2, BRD3, and BRD4:
All assays were performed in 384 well microtiter plates. Each assay plate contained 8-point serial dilutions for 40 test compounds, plus 16 high- and 16 low controls. Liquid handling and incubation steps were done on an Innovadyne Nanodrop Express equipped with a robotic arm (Thermo CatX, Perkin Elmer/Caliper Twister II) and an incubator (Liconic STX40, Thermo Cytomat 2C450). The assay plates were prepared by addition of 50 nl per well of compound solution in 90% DMSO HummingBird nanodispenser (Zinsser Analytic). […] Reactions were incubated at 30° C. for 35 minutes. […] After 35 minutes incubation at 30° C., plates were measured in a Perkin Elmer EnVision multilabel reader.
Preparation of Compound Dilutions
Test compounds were dissolved in DMSO (10 mM) and transferred into 1.4 mL flat bottom or V-shaped Matrix tubes carrying a unique 2D matrix. The stock solutions were stored at […] if not used immediately. For the test procedure the vials were defrosted and identified by a scanner whereby a working sheet was generated that guided the subsequent working steps.
Compound dilutions were made in 96 well plates. This format enabled the assay of maximally 40 individual test compounds at 8 concentrations (single points) including 4 reference compounds, if desired (known BET inhibitors from the prior art, for this and other assays of the type disclosed herein). The dilution protocol included the production of “pre-dilution plates”, “master plates” and “assay plates”.
Pre-Dilution Plates: 96 polypropylene well plates were used as pre-dilution plates. A total of 4 pre-dilution plates were prepared including 10 test compounds each on the plate positions A1-A10, one standard compound at A11 and one DMSO control at A12. All dilution steps were done on a HamiltonSTAR robot.
These plates were used directly for the assay which was performed in a total volume of 13.55 μL.

[1] = molecular target: CREBBP bromodomain (His-CREBBP(1081-1197)) (Homo sapiens (Human), UniProt Q92793); assay: AlphaScreen in-vitro binding assay for CREBBP; details: single determination or n ≧ 2 independent determinations, read-out: Biochemical IC50 CREBBP
Chain of CREBBP bromodomain (His-CREBBP(1081-1197)) (Q92793 1081-1197): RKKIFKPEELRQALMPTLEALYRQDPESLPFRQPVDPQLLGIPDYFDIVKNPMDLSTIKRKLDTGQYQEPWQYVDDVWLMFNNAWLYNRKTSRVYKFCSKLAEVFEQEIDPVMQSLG
In short: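 Reactions at 30 °C for 35 min, then Ni-chelate acceptor and streptavidin donor beads in HEPES pH 7.5, NaCl, Tween20, BSA, 60 min at room temperature. Eight-point compound series; IC50 by non-linear regression of percent inhibition.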

BRD3 (His-Brd3(20-477)) = BRD3 (His-Brd3(20-477)) (Homo sapiens (Human), UniProt Q15059); assay: TR-FRET in-vitro binding assay for BRD3; details: single determination or n ≧ 2 independent determinations, read-out: Biochemical IC50 BRD3
Chain of BRD3 (His-Brd3(20-477)) (Q15059 20-477): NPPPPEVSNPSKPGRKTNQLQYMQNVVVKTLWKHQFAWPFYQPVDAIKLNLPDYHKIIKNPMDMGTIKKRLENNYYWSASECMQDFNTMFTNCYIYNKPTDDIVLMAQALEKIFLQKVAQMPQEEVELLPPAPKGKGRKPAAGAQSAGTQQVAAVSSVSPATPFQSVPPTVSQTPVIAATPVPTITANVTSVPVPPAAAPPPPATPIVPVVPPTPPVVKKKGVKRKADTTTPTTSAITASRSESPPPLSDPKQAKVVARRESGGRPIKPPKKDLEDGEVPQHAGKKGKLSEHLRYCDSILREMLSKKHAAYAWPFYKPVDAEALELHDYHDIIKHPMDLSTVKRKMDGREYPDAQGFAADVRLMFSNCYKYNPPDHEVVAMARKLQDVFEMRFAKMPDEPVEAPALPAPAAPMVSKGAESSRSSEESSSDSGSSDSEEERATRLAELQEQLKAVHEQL
In short: as §1

THP-1 cells = assay: Cell growth inhibition assay (CellTiter-Glo), THP-1; details: for GI50: Homo sapiens, THP-1, read-out: THP-1 GI50; for THP-1 TGI: THP-1 cells, total growth inhibition, CellTiter-Glo;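 as to all read-outs here: viability read as cellular ATP luminescence after 4 days, 3-fold dilution series from 10 µM, DMSO vehicle-treated cells taken as 100%, cell-free medium wells as −100%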
K-562 cells = assay: Cell growth inhibition assay (CellTiter-Glo), K-562; details: for GI50: Homo sapiens, K562, read-out: K-562 GI50; for K-562 TGI: K-562 cells, total growth inhibition, CellTiter-Glo;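 as to all read-outs here: cellular ATP measured by luminescence after 4 days of exposure, 3-fold dilution series from 10 µM, DMSO vehicle-treated cells define 100%, cell-free medium wells −100%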

SMILES | GI50 (MV-4-11 cells) | MV-4-11 TGI (MV-4-11 cells) | IC50 (BRD4 (His-Brd4(44-477))) | IC50 (BRD2 (His-Brd2(60-472))) | IC50 [1] | IC50 (BRD3 (His-Brd3(20-477))) | GI50 (THP-1 cells) | THP-1 TGI (THP-1 cells) | GI50 (K-562 cells) | K-562 TGI (K-562 cells)
Cc1cc(N2C(=O)c3nc(C4CC4)n(C(C)C)c3C2c2ccc(Cl)cc2)cn(C)c1=O (stereo not shown) [Example 28, 6-(4-chlorophenyl)-2-cyclopropyl-5-(1,5-dimethyl-6-oxo-1,6-dihydropyridin-3-yl)-1-isopropyl-5,6-dihydropyrrolo[3,4-d]imidazol-4(1H)-one] | 0.0979 µM | 0.136 µM | 0.117 µM | 0.104 µM | 3.4 µM | 0.0937 µM | 0.208 µM | 0.384 µM | 0.908 µM | >10 µM
COc1ncc(-c2nc3c(n2C(C)C)C(c2ccc(Cl)cc2)N(c2cc(C)c4onc(C)c4c2)C3=O)c(OC)n1 (stereo not shown) [Example 34, 6-(4-chlorophenyl)-2-(2,4-dimethoxypyrimidin-5-yl)-5-(3,7-dimethylbenzo[d]-isoxazol-5-yl)-1-isopropyl-5,6-dihydropyrrolo[3,4-d]imidazol-4(1H)-one] | 0.0366 µM | 0.0766 µM | 0.0653 µM | 0.0983 µM | 1.67 µM | 0.0765 µM | 0.0649 µM | 0.109 µM | 0.219 µM | >10 µM
COc1ccc(-c2nc3c(n2C(C)C)C(c2ccc(Cl)cc2)N(c2cc(C)c4onc(C)c4c2)C3=O)cn1 (stereo not shown) [Example 35, 6-(4-chlorophenyl)-5-(3,7-dimethylbenzo[d]isoxazol-5-yl)-1-isopropyl-2-(6-methoxypyridin-3-yl)-5,6-dihydropyrrolo[3,4-d]imidazol-4(1H)-one] | 0.226 µM | 0.384 µM | 0.021 µM | 0.043 µM | > 37 µM | 0.035 µM | 0.289 µM | 0.462 µM | 0.946 µM | >10 µM
CCCn1c(-c2cc(OC)ncc2F)nc2c1C(=O)N(c1cc(C)c(=O)n(C)c1)C2c1ccc(Cl)cc1 (stereo not shown) [Example 36, 6-(4-chlorophenyl)-5-(1,5-dimethyl-6-oxo-1,6-dihydropyridin-3-yl)-2-(5-fluoro-2-methoxypyridin-4-yl)-3-propyl-5,6-dihydropyrrolo[3,4-d]imidazol-4(3H)-one] | 0.0598 µM | 0.104 µM | 0.15 µM | 0.164 µM | 2.5 µM | 0.16 µM | 0.115 µM | 0.235 µM | 0.25 µM | >10 µM
CCCn1c(-c2cncc(C#N)c2)nc2c1C(=O)N(c1cc(C)c(=O)n(C)c1)C2c1ccc(Cl)cc1 (stereo not shown) [Example 37, 5-(4-(4-chlorophenyl)-5-(1,5-dimethyl-6-oxo-1,6-dihydropyridin-3-yl)-6-oxo-1-propyl-1,4,5,6-tetrahydropyrrolo[3,4-d]imidazol-2-yl)nicotinonitrile] | 0.0669 µM | 0.105 µM | 0.166 µM | 0.275 µM | 4.1 µM | 0.165 µM | 0.1 µM | 0.195 µM | 0.32 µM | >10 µM
Cc1cc(N2C(=O)c3nc(C4=CCOC4)n(C(C)C)c3[C@H]2c2ccc(Cl)cc2)cn2c(C)nnc12 [Example 48, (R)-6-(4-chlorophenyl)-2-(2,5-dihydrofuran-3-yl)-5-(3,8-dimethyl-[1,2,4]triazolo[4,3-a]pyridin-6-yl)-1-isopropyl-5,6-dihydropyrrolo[3,4-d]imidazol-4(1H)-one] | 0.0105 µM | 0.0245 µM | 0.027 µM | 0.041 µM | 3.05 µM | 0.033 µM | 0.0565 µM | 0.109 µM | 0.351 µM | >10 µM
Cc1cc(N2C(=O)c3nc(C4=CCNCC4)n(C(C)C)c3C2c2ccc(Cl)cc2)cn2c(C)nnc12 (stereo not shown) [Example 49, 6-(4-Chlorophenyl)-5-(3,8-dimethyl-[1,2,4]triazolo[4,3-a]pyridin-6-yl)-1-isopropyl-2-(1,2,3,6-tetrahydropyridin-4-yl)-5,6-dihydropyrrolo[3,4-d]imidazol-4(1H)-one] | 0.191 µM | 0.32 µM | 0.035 µM | 0.056 µM | 2.21 µM | 0.042 µM | 0.989 µM | 1.47 µM | 2.04 µM | >10 µM
Cc1cc(N2C(=O)c3nc(C4=CCN(C)CC4)n(C(C)C)c3C2c2ccc(Cl)cc2)cn2c(C)nnc12 (stereo not shown) [Example 50, 6-(4-Chlorophenyl)-5-(3,8-dimethyl-[1,2,4]triazolo[4,3-a]pyridin-6-yl)-1-isopropyl-2-(1-methyl-1,2,3,6-tetrahydropyridin-4-yl)-5,6-dihydropyrrolo[3,4-d]imidazol-4(1H)-one] | 0.0288 µM | 0.0571 µM | 0.027 µM | 0.041 µM | 5.4 µM | 0.0235 µM | 0.233 µM | 0.495 µM | 0.575 µM | >10 µM
Cc1cc(N2C(=O)c3nc(C4=CC(C)(C)NC(C)(C)C4)n(C(C)C)c3C2c2ccc(Cl)cc2)cn2c(C)nnc12 (stereo not shown) [Example 51, 6-(4-Chlorophenyl)-5-(3,8-dimethyl-[1,2,4]triazolo[4,3-a]pyridin-6-yl)-1-isopropyl-2-(2,2,6,6-tetramethyl-1,2,3,6-tetrahydropyridin-4-yl)-5,6-dihydropyrrolo[3,4-d]imidazol-4(1H)-one] | 0.0224 µM | 0.0479 µM | 0.0195 µM | 0.04 µM | 6.4 µM | 0.025 µM | 0.212 µM | 0.612 µM | 0.439 µM | >10 µM
Cc1cc(N2C(=O)c3nc(C)n(C(C)C)c3C2c2ccc(Cl)cc2)cn2c(C)nnc12 (stereo not shown) [Example 58, 6-(4-chlorophenyl)-5-(3,8-dimethyl-[1,2,4]triazolo[4,3-a]pyridin-6-yl)-1-isopropyl-2-methyl-5,6-dihydropyrrolo[3,4-d]imidazol-4(1H)-one] | 0.0238 µM | 0.04875 µM | 0.055 µM | 0.078 µM | 10.3 µM | 0.038 µM | 0.0995 µM | 0.2075 µM | 0.366 µM | >10 µM
Cc1cc(N2C(=O)c3nc(C)n(C(C)C)c3[C@H]2c2ccc(Cl)cc2)cn2c(C)nnc12 [Example 59, (R)-6-(4-chlorophenyl)-5-(3,8-dimethyl-[1,2,4]triazolo[4,3-a]pyridin-6-yl)-1-isopropyl-2-methyl-5,6-dihydropyrrolo[3,4-d]imidazol-4(1H)-one] | 0.0178 µM | 0.0349 µM | 0.03 µM | 0.048 µM | 5.7 µM | 0.034 µM | 0.041 µM | 0.114 µM | 0.117 µM | >10 µM
COc1cc(N2C(=O)c3nc(C4=CCOCC4)n(C(C)C)c3C2c2ccc(Cl)cc2)cc2c1nnn2C (stereo not shown) [Example 60] | 0.034 µM | 0.0631 µM | 0.0315 µM | 0.096 µM | 21.9 µM | 0.0535 µM | 0.0691 µM | 0.132 µM | 0.28 µM | >10 µM
COc1cc(N2C(=O)c3nc(C4=CCOCC4)n(C(C)C)c3[C@H]2c2ccc(Cl)cc2)cc2c1nnn2C [Example 61] | 0.0282 µM | 0.0551 µM | 0.0245 µM | 0.1 µM | 17.9 µM | 0.0515 µM | 0.0654 µM | 0.149 µM | 0.116 µM | >10 µM
